{"source": "paper PMC7385176", "about": "“Engineering a disulfide-gated switch in streptavidin enables reversible binding without sacrificing binding affinity” (Scientific Reports, 2020)", "key": {"[1]": {"experiment": "Biotin-4-fluorescein on-rate assay", "assay_type": "binding", "settings": "25 °C", "method": "Association kinetics were also monitored by utilizing B4F. […] 20 μL streptavidin was added and measurements were started immediately on a Horiba FluoroMax-4 spectrofluorometer with 490 nm excitation/525 nm emission and 2 and 15 nm slit widths, respectively, for the monochromator. Protein concentrations used were: 0.4, 0.8, 1.6, 2.4, 3.2 nM for wt; 0.8, 1.6, 3.2, 6.4 nM for oxidized M112; 0.4, 0.8, 1.6, 3.2 nM for reduced M112; 0.77, 1.5, 3.1, 6.1 nM for reduced M88 and 6.25, 12.5, 25, 50 nM for traptavidin. For oxidized M88, measurements were done in 60 μL total volume using 10 nM B4F and 50, 100, 200 and 400 nM M88."}, "[2]": {"experiment": "Biotin-4-fluorescein off-rate assay (competitive, fluorescence quenching; Arrhenius extrapolation)", "procedure": "Dissociation kinetics were measured with a competitive assay exploiting the fluorescence quenching of B4F upon binding to streptavidin[13],[30]. In a total volume of 200 μL, 50 nM streptavidin, 10 nM B4F (Invitrogen), 50 mM NaCl, 1 mM EDTA, 20 mM Tris pH 8, were incubated for 30 min. Biotin was added to 0.1 mM to prevent B4F re-association and fluorescence was monitored using a Tecan Infinite M200 plate reader with 485 nm excitation/525 nm emission for 12 h at 25 °C. The maximum, with all B4F unbound, and minimum, with all B4F bound, fluorescence was determined with similar mixtures in the absence of either streptavidin or biotin, respectively, and the fraction of B4F released at each time point was calculated as %B4FReleased=response-min/max-min×100% . […] The rapid phase was ignored and off-rate constants were determined by nonlinear least squares fitting of the data to the single exponential function y=1-e^kt .\nHigh-temperature kinetics were measured by the same competitive assay but instead using a Horiba Jobin–Yvon FluoroMax-4 spectrofluorometer. To limit evaporation and condensation within the cuvette, it was filled to the top with 4 mL of solution using the same concentrations of reagents as above. Fluorescence was initially measured without streptavidin, giving the maximum, unquenched signal. Streptavidin was then added and allowed to equilibrate until a constant fluorescent signal was achieved, and unlabelled biotin was added to start the experiment. At these higher temperatures, the rapid release phase was more apparent and accounted for by fitting the data to the double exponential function y=max-ae^-kat-be^-kbt. The linear Arrhenius plot was generated by plotting ln(koff) against 1/temperature. A linear least squares fit to the function lnkoff=lnA-Ea/RT was used to extrapolate the dissociation constant at lower temperatures."}, "[3]": {"experiment": "Thermostability assay (heating in SDS, SDS-PAGE of tetramer)", "assay_type": "physicochemical", "settings": "for denaturation of the tetramer: presence of biotin", "method": "To assess thermostability, SDS was added to 2% to wild-type or previously oxidized M88 or M112 and was incubated in the presence or absence of 5 mM biotin and in the presence and absence of 200 mM β-mercaptoethanol for 15 min. The samples were heated at 75 or 95 °C for 1 h and aliquots taken every 5 min for the first 30 min, and then at 45 and 60 min. Samples from each time point were run on a 12% SDS-PAGE gel, which were than stained with Coomassie blue. Band intensity was quantified using ImageJ software and the fraction of protein that remained tetrameric was determined relative to time zero. The band intensities for a series of standards was determined to indicate the linear range for quantification."}, "[4]": {"experiment": "Rate of disulfide bond formation (Alexa Fluor 633 maleimide labelling)", "assay_type": "physicochemical", "settings": "10 mM GSSG", "from_the_text": "Protein disulfide bond formation was catalyzed by thiol-disulfide exchange with either oxidized glutathione (GSSG) or 2,2′-dipyridyldisulfide. Disulfide bonds were inferred by selectively labelling free Cys with Alexa Fluor 633 C5 maleimide (Invitrogen) and subsequent separation by Tricine SDS-PAGE[50]. Detection is based on both fluorescence and a mobility shift due to the large size of these labels (~ 1.3 kDa each, ~ 2.6 kDa if both cysteines in M88 or M112 react). Ratios of reactants were based on those previously described for saturation labelling. Because the N- and C-terminal tails are susceptible to degradation by trace proteases, leading to band heterogeneity in the gel, core-form versions of M88 and M112 were primarily used for this assay. […] Immediately after the run, fluorescence was measured with excitation by 635 nm laser and emission collected through a 665 nm long-pass filter on a Typhoon FLA 9,500 laser scanner (GE Healthcare).\nTo measure the time course of disulfide formation, streptavidin muteins were reduced with TCEP which was subsequently removed by centrifugal filtration. […] Fluorescence intensity of each band was quantified using ImageQuant software and the amount off free Cys at each timepoint was determined relative to the initial amount. […]"}, "[5]": {"settings": "cited from earlier work"}}, "note": "Read-outs that look alike come from different tables or passages of the source.", "data": [{"substance": "M88 oxidized: M88 (N49C/A86C streptavidin mutein) with the Cys-49/Cys-86 disulfide bond formed", "values": [{"measurement": "decrease in rate of association compared to the reduced form of M88", "setting": "[1]", "value": 18.5, "unit": "fold"}, {"measurement": "decrease in rate of association compared to wild-type streptavidin", "setting": "[1]", "value": 117, "unit": "fold"}, {"measurement": "kon", "setting": "[1]; B4F, ± standard error", "value": "4.6 ± 0.3 × 10^5 M^-1 s^-1"}, {"measurement": "change in B4F fluorescence (dissociation)", "setting": "[2]; 25 °C, after 12 h", "value": "no change in B4F fluorescence measurable"}, {"measurement": "rate of dissociation lower than wild-type streptavidin", "setting": "[2]; 25 °C, extrapolated", "value": 225, "unit": "fold"}, {"measurement": "stability during kinetics measurement", "setting": "[2]; 90 °C", "value": "appeared to be stable"}, {"measurement": "rate of dissociation relative to traptavidin", "setting": "[2]; Arrhenius plot, 25–90 °C", "value": "approximately half"}, {"measurement": "t1/2", "setting": "[2]; B4F, 25 °C, calculated as ln(2)/koff", "value": "18.3 ± 6.1", "unit": "years"}, {"measurement": "koff", "setting": "[2]; B4F, 25 °C, extrapolated from the Arrhenius plot", "value": "1.2 ± 0.4 × 10^–9 s^-1"}, {"measurement": "tetramer state after heating", "setting": "[3]; 75 °C, without biotin, 60 min incubation", "value": "remains tetrameric"}, {"measurement": "denaturation of the tetramer", "setting": "[3]; 95 °C, 60 min incubation", "value": "no appreciable denaturation"}]}, {"substance": "M112: streptavidin mutein G26C/A46C with a Cys-26/Cys-46 disulfide bond on the N-terminal side of loop 3–4", "values": [{"measurement": "increase in rate of dissociation for B4F, oxidized vs reduced M112", "setting": "[2]; 25 °C", "value": "~ 60 fold"}, {"measurement": "pseudo-first order rate constant of disulfide bond formation", "setting": "[4]; 21 °C", "value": "0.14 ± 0.02", "unit": "h⁻¹"}, {"measurement": "pseudo-first order rate constant of disulfide bond formation", "setting": "[4]; 37 °C", "value": "0.41 ± 0.06", "unit": "h⁻¹"}]}, {"substance": "Wild-type: 66-kDa homotetrameric biotin-binding protein from Streptomyces avidinii; obtained from Bio Basic", "values": [{"measurement": "time to denature completely", "setting": "[3]; 75 °C, absence of biotin", "value": "≤ 5", "unit": "min"}, {"measurement": "time to complete denaturation", "setting": "[3]; 95 °C, biotin absent", "value": "less than 1 min"}, {"measurement": "denaturation of the tetramer", "setting": "[3]; 95 °C, 60 min incubation", "value": "no appreciable denaturation"}, {"measurement": "melting temperature", "setting": "[5]; apo-streptavidin", "value": 75.5, "unit": "°C"}, {"measurement": "state at boiling temperatures", "setting": "[5]; presence of SDS", "value": "remains tetrameric and bound to biotin"}, {"measurement": "melting temperature", "setting": "[5]; streptavidin–biotin complex", "value": 112.2, "unit": "°C"}]}]}
